Test [1] deals with Cabbage Looper (Trichoplusia ni). Briefly: Bioassay on Cabbage Looper (CL), 128-well diet tray assay. It is filed as in vivo. The note with it: 168 h, 50 μg/cm^2 on artificial diet, second instar larvae, five to seven days, read-out: CL % Control (or Mortality) rating. In a few lines:
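Test molecule was dissolved in 90:10 acetone-water, applied to artificial diet at 50 μg/cm^2 and allowed to dry. Second-instar larvae were then added, one to five per well, and trays held at 25° C for five to seven days before mortality was scored and averaged.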

Test [2] has as its system Beet Armyworm (Spodoptera exigua). Briefly: Bioassay on Beet Armyworm (BAW), 128-well diet tray assay. It is filed as in vivo. The note with it: Spodoptera exigua, 168 h; 50 μg/cm^2 on artificial diet, second instar larvae, five to seven days; read-out: BAW % Control (or Mortality) rating.

One may read the mortality as the share of the test organisms that died.

As to `O=C(NNC1CCC(F)(F)CC1)c1ccc(/C(F)=C/C(c2cc(Cl)c(Cl)c(Cl)c2)C(F)(F)F)cc1C(F)(F)F` (stereo not drawn) [F146, (Z)—N′-(4,4-Difluorocyclohexyl)-4-(1,4,4,4-tetrafluoro-3-(3,4,5-trichlorophenyl)but-1-en-1-yl)-2-(trifluoromethyl)benzohydrazide], the mortality at 50 µg/cm2 in test [1] and in test [2] was 50 to 100% in each case.

For the molecule `CCc1cnc(NNC(=O)c2ccc(/C(F)=C/C(c3cc(Cl)c(Cl)c(Cl)c3)C(F)(F)F)cc2C(F)(F)F)nc1` (stereo not drawn) [F84, (Z)—N′-(5-Ethylpyrimidin-2-yl)-4-(1,4,4,4-tetrafluoro-3-(3,4,5-trichlorophenyl)but-1-en-1-yl)-2-(trifluoromethyl)benzohydrazide], the mortality at 50 µg/cm2 in test [1] and in test [2] was 50 to 100% throughout.

Regarding `CN(NC(=O)c1ccc(/C(F)=C/C(c2ccc(Cl)c(OC(F)(F)F)c2)C(F)(F)F)cc1C(F)(F)F)c1ccccn1` (stereo not drawn) [F60, (Z)-4-(3-(4-Chloro-3-(trifluoromethoxy)phenyl)-1,4,4,4-tetrafluorobut-1-en-1-yl)-N′-methyl-N′-(pyridin-2-yl)-2-(trifluoromethyl)benzohydrazide], the mortality at 50 µg/cm2 in test [1] and in test [2] was 50 to 100% throughout.

On to `O=C(NNc1ccc(F)cc1F)c1ccc(/C(F)=C/C(c2cc(Cl)c(Cl)c(Cl)c2)C(F)(F)F)cc1C(F)(F)F` (stereo not drawn) [F26, (Z)—N′-(2,4-Difluorophenyl)-4-(1,4,4,4-tetrafluoro-3-(3,4,5-trichlorophenyl)but-1-en-1-yl)-2-(trifluoromethyl)benzohydrazide], for which the mortality at 50 µg/cm2 in test [1] and in test [2] was 50 to 100% each time.

As to `O=C(NNc1ncccn1)c1ccc(/C(F)=C/C(c2cc(Cl)cc(Br)c2)C(F)(F)F)cc1C(F)(F)F` (stereo not drawn) [F173, (Z)-4-(3-(3-Bromo-5-chlorophenyl)-1,4,4,4-tetrafluorobut-1-en-1-yl)-N′-(pyrimidin-2-yl)-2-(trifluoromethyl)benzohydrazide], the mortality at 50 µg/cm2 in test [1] and in test [2] was 50 to 100% in each case.

Take `O=C(Nn1cnnc1)c1ccc(/C(F)=C/C(c2cc(Cl)c(Cl)c(Cl)c2)C(F)(F)F)cc1C(F)(F)F` (stereo not drawn) [F48, (Z)-4-(1,4,4,4-Tetrafluoro-3-(3,4,5-trichlorophenyl)but-1-en-1-yl)-N-(4H-1,2,4-triazol-4-yl)-2-(trifluoromethyl)benzamide]: the mortality at 50 µg/cm2 in test [1] and in test [2] was 0% each time.

For the molecule `O=C(NNc1ccnnc1)c1ccc(/C(F)=C/C(c2cc(Cl)c(Cl)c(Cl)c2)C(F)(F)F)cc1C(F)(F)F` (stereo not drawn) [F33, (Z)—N′-(Pyridazin-4-yl)-4-(1,4,4,4-tetrafluoro-3-(3,4,5-trichlorophenyl)but-1-en-1-yl)-2-(trifluoromethyl)benzohydrazide], the mortality at 50 µg/cm2 in test [1] and in test [2] was 50 to 100% each time.

With `O=C(Nn1cccc1)c1ccc(/C(F)=C/C(c2cc(Cl)c(Cl)c(Cl)c2)C(F)(F)F)cc1C(F)(F)F` (stereo not drawn) [F51, (Z)—N-(1H-Pyrrol-1-yl)-4-(1,4,4,4-tetrafluoro-3-(3,4,5-trichlorophenyl)but-1-en-1-yl)-2-(trifluoromethyl)benzamide], the mortality at 50 µg/cm2 in test [1] and in test [2] was 50 to 100% each time.

Turning to `O=C(NNc1cccnn1)c1ccc(/C(F)=C/C(c2cc(Cl)c(Cl)c(Cl)c2)C(F)(F)F)cc1C(F)(F)F` (stereo not drawn) [F86], the mortality at 50 µg/cm2 in test [1] and in test [2] was 50 to 100% each time.

Consider `O=C(NNc1ccccc1)c1ccc(/C(F)=C/C(c2cc(Br)c(F)c(Br)c2)C(F)(F)F)cc1C(F)(F)F` (stereo not drawn) [F45, (Z)-4-(3-(3,5-dibromo-4-fluorophenyl)-1,4,4,4-tetrafluorobut-1-en-1-yl)-N′-phenyl-2-(trifluoromethyl)benzohydrazide], for which the mortality at 50 µg/cm2 in test [1] and in test [2] was 50 to 100% each time.

For the molecule `O=C(NNC1CCCCC1)c1ccc(/C(F)=C/C(c2cc(Cl)c(Cl)c(Cl)c2)C(F)(F)F)cc1C(F)(F)F` (stereo not drawn) [F137, (Z)—N′-Cyclohexyl-4-(1,4,4,4-tetrafluoro-3-(3,4,5-trichlorophenyl)but-1-en-1-yl)-2-(trifluoromethyl)benzohydrazide], the mortality at 50 µg/cm2 in test [1] and in test [2] was 50 to 100% throughout.

With `Cc1cc(C)c(NNC(=O)c2ccc(/C(F)=C/C(c3cc(Cl)c(Cl)c(Cl)c3)C(F)(F)F)cc2C(F)(F)F)c(C)c1` (stereo not drawn) [F73, (Z)—N′-Mesityl-4-(1,4,4,4-tetrafluoro-3-(3,4,5-trichlorophenyl)but-1-en-1-yl)-2-(trifluoromethyl)benzohydrazide], the mortality at 50 µg/cm2 in test [1] was 0 to 50%; in test [2] it was 50 to 100%.

As for `CN(NC(=O)c1ccc(/C(F)=C/C(c2cc(Cl)cc(C(F)(F)F)c2)C(F)(F)F)cc1C(F)(F)F)c1ncccn1` (stereo not drawn) [F83, (Z)-4-(3-(3-Chloro-5-(trifluoromethyl)phenyl)-1,4,4,4-tetrafluorobut-1-en-1-yl)-N′-methyl-N′-(pyrimidin-2-yl)-2-(trifluoromethyl)benzohydrazide], the mortality at 50 µg/cm2 in test [1] and in test [2] was 50 to 100% throughout.

In the case of `O=C(NNC1CCS(=O)(=O)C1)c1ccc(/C(F)=C/C(c2cc(Cl)c(Cl)c(Cl)c2)C(F)(F)F)cc1C(F)(F)F` (stereo not drawn) [F135, (Z)—N′-(1,1-Dioxidotetrahydrothiophen-3-yl)-4-(1,4,4,4-tetrafluoro-3-(3,4,5-trichlorophenyl)but-1-en-1-yl)-2-(trifluoromethyl)benzohydrazide], the mortality at 50 µg/cm2 in test [1] and in test [2] was 50 to 100% in each case.

With `C=C(OCC)c1c(Cl)cc(C(/C=C(\F)c2ccc(C(=O)NNc3ncccn3)c(C(F)(F)F)c2)C(F)(F)F)cc1Cl` (stereo not drawn) [F190, (Z)-4-(3-(3,5-Dichloro-4-(1-ethoxyvinyl)phenyl)-1,4,4,4-tetrafluorobut-1-en-1-yl)-N′-(pyrimidin-2-yl)-2-(trifluoromethyl)benzohydrazide], the mortality at 50 µg/cm2 in test [1] and in test [2] was 50 to 100% throughout.

Consider `O=C(NNc1cncc(Cl)n1)c1ccc(/C(F)=C/C(c2cc(Cl)c(Cl)c(Cl)c2)C(F)(F)F)cc1C(F)(F)F` (stereo not drawn) [F104, (Z)—N′-(6-Chloropyrazin-2-yl)-4-(1,4,4,4-tetrafluoro-3-(3,4,5-trichlorophenyl)but-1-en-1-yl)-2-(trifluoromethyl)benzohydrazide], for which the mortality at 50 µg/cm2 in test [1] and in test [2] was 50 to 100% in each case.

In the case of `O=C(NNc1ccc(C(F)(F)F)cc1)c1ccc(/C(F)=C/C(c2cc(Cl)c(Cl)c(Cl)c2)C(F)(F)F)cc1C(F)(F)F` (stereo not drawn) [F70, (Z)-4-(1,4,4,4-tetrafluoro-3-(3,4,5-trichlorophenyl)but-1-en-1-yl)-2-(trifluoromethyl)-N′-(4-(trifluoromethyl)phenyl)benzohydrazide], the mortality at 50 µg/cm2 in test [1] and in test [2] was 50 to 100% throughout.

Regarding `CC(C)N(NC(=O)c1ccc(/C(F)=C/C(c2cc(Cl)c(Cl)c(Cl)c2)C(F)(F)F)cc1C(F)(F)F)c1ncccn1` (stereo not drawn) [F169, (Z)—N′-Isopropyl-N′-(pyrimidin-2-yl)-4-(1,4,4,4-tetrafluoro-3-(3,4,5-trichlorophenyl)but-1-en-1-yl)-2-(trifluoromethyl)benzohydrazide], the mortality at 50 µg/cm2 in test [1] and in test [2] was 50 to 100% each time.

`O=C(NNc1ccccn1)c1ccc(/C(F)=C/C(c2cc(Br)c(F)c(Br)c2)C(F)(F)F)cc1C(F)(F)F` (stereo not drawn) [F6, (Z)-4-(3-(3,5-Dibromo-4-fluorophenyl)-1,4,4,4-tetrafluorobut-1-en-1-yl)-N′-(pyridin-2-yl)-2-(trifluoromethyl)benzohydrazide]: the mortality at 50 µg/cm2 in test [1] and in test [2] was 50 to 100% throughout.

Regarding `NN(C(=O)c1ccc(/C(F)=C/C(c2cc(Cl)c(Cl)c(Cl)c2)C(F)(F)F)cc1C(F)(F)F)C1CC1` (stereo not drawn) [F112, (Z)—N-Cyclopropyl-4-(1,4,4,4-tetrafluoro-3-(3,4,5-trichlorophenyl)but-1-en-1-yl)-2-(trifluoromethyl)benzohydrazide], the mortality at 50 µg/cm2 in test [1] and in test [2] was 50 to 100% in each case.

Turning to `O=C(NNc1ncccn1)c1ccc(/C(F)=C/C(c2cc(Br)c(Cl)c(Br)c2)C(F)(F)F)cc1C(F)(F)F` (stereo not drawn) [F185, (Z)-4-(3-(3,5-Dibromo-4-chlorophenyl)-1,4,4,4-tetrafluorobut-1-en-1-yl)-N′-(pyrimidin-2-yl)-2-(trifluoromethyl)benzohydrazide], the mortality at 50 µg/cm2 in test [1] and in test [2] was 50 to 100% each time.

As to `CN(NC(=O)c1ccc(/C(F)=C/C(c2ccc(OC(F)(F)F)c(Cl)c2)C(F)(F)F)cc1C(F)(F)F)c1ccccn1` (stereo not drawn) [F107, (Z)-4-(3-(3-Chloro-4-(trifluoromethoxy)phenyl)-1,4,4,4-tetrafluorobut-1-en-1-yl)-N′-methyl-N′-(pyridin-2-yl)-2-(trifluoromethyl)benzohydrazide], the mortality at 50 µg/cm2 in test [1] and in test [2] was 50 to 100% in each case.

Take `O=C(Nn1ccnn1)c1ccc(/C(F)=C/C(c2cc(Cl)c(Cl)c(Cl)c2)C(F)(F)F)cc1C(F)(F)F` (stereo not drawn) [F62, (Z)-4-(1,4,4,4-Tetrafluoro-3-(3,4,5-trichlorophenyl)but-1-en-1-yl)-N-(1H-1,2,3-triazol-1-yl)-2-(trifluoromethyl)benzamide]: the mortality at 50 µg/cm2 in test [1] and in test [2] was 50 to 100% each time.

As for `O=C(NNCC(F)(F)F)c1ccc(/C(F)=C/C(c2cc(Cl)c(Cl)c(Cl)c2)C(F)(F)F)cc1C(F)(F)F` (stereo not drawn) [F49, (Z)-4-(1,4,4,4-tetrafluoro-3-(3,4,5-trichlorophenyl)but-1-en-1-yl)-N′-(2,2,2-trifluoroethyl)-2-(trifluoromethyl)benzohydrazide], the mortality at 50 µg/cm2 in test [1] and in test [2] was 50 to 100% each time.

Source of the values: patent US10638756B2, “Molecules having pesticidal utility, and intermediates, compositions, and processes, related thereto” (Dow AgroSciences LLC, priority 2017, dated 2020).
